Results on 4 compounds are retold here after patent US10238619B1, “Composition and method of using the same” (priority 2017, dated 2019).

Experiment [1] concerns persistent (biofilm) form of Borrelia garinii. Briefly: effect on biofilm-like colonies, crystal violet staining. Conditions: for susceptibility of biofilm: 0.3 mg/ml, 72 hours; for efficacy against biofilm compared with combinations (Mix 1 and Mix 2): individual ingredient 0.075 mg/ml. The class given is cell-based, Borrelia garinii CIP103362. As for the experimental part: (§1) Two Borrelia species, namely, Borrelia burgdorferi and Borrelia garinii were tested in this study. Low passage isolates of the B31 strain of B. burgdorferi and CIP103362 strain of B. garinii were obtained from the American Type Culture Collection (Manassas, Va.). The stocks of both species were cultured in commonly used conditions, i.e. medium such as Barbour-Stoner-Kelly H (BSK-H) supplemented with 6% rabbit serum (Sigma, St Louis, Mo.) without antibiotics at 33° C. with 5% CO2, in sterile screw-cap 15 mL polypropylene tubes with or without gentile shaking depends on type of experiment. B31 strain is an isolate from Ixodes dammini whereas CIP103362 strain is an isolate from Ixodes ricinus. Both strains are well known human pathogenic factors of Lyme disease. So far, Borrelia burgdorferi has been found in ticks from North America and Eurasia, while Borrelia garinii only in ticks in Eurasia.
(§2) The strains of B. burgdorferi and B. garinii were prepared for testing as described in the art (Sapi et al., 2011). Briefly, the strains were activated from original cryobank vials and inoculated into 10 mL BSK-H compete medium, and maintained at 33° C. For generation of homogeneous cultures of B. burgdorferi or B. garinii, bacterial cells were inoculated and maintained in a shaking incubator at 33° C. and 250 rpm, where there is no biofilm formation (Sapi et al., 2011; supported by own observation). For generation of biofilm-like colonies of B. burgdorferi or B. garinii, bacterial cells were inoculated in four-well chambers (BD Biosciences, Sparks, Md.) coated with rat-tail collagen type I and incubated for 1 week without shaking.
(§3) Evaluation of test compounds/mixtures on bacterial biofilm. Qualitative effect of the individual test compounds and their mixtures against biofilm-like colonies of B. burgdorferi and B. garinii was evaluated using commonly used and well accepted crystal violet (CV) staining method, according to protocol provided by Sapi et al. Briefly, 1×10^7 bacterial cells/mL from homogeneous cultures of spirochetes were grown on extracellular matrix proteins (i.e., collagen type I) coated four-well chambers and incubated for 1 week.
(§4) After the 1 week of incubation, biofilm-like colonies were treated with various compounds/mixtures. Control wells were treated with ethanol (i.e., 0.075-0.3 mg/ml) alone. For doxycycline, as a positive control, the final used concentration was 0.03% (v/v). The chambers were then incubated at 33° C. for 72 hours. The whole experiment was repeated three times for each strain and each concentration. Next, all wells were fixed with 500 μL of cold methanol-formalin (1:1) for 30 minutes and stained with 1 mL of crystal violet (0.1%) for 10 minutes. The biofilm-like colonies were carefully washed three times with 1×PBS and 1 mL of methanol was added to each well to extract a dye, which was measured at 595 nm wavelength.

The test system of experiment [2] is persistent (biofilm) form of Borrelia burgdorferi. Described as above. To be noted: for susceptibility of biofilm: 0.3 mg/ml, 72 hours; for efficacy against biofilm compared with combinations (Mix 1 and Mix 2): individual ingredient 0.075 mg/ml. Type of experiment: cell-based, Borrelia burgdorferi B31. As for the experimental part:
as §1, §2, §3, §4

Experiment [3] has as its system active (spirochete) form of Borrelia garinii. Briefly: bacteriostatic/bactericidal effect on spirochetes, LIVE/DEAD BacLight (SYTO9/IP) fluorescence. The class given is cell-based, Borrelia garinii CIP103362. Conditions: individual compound 0.3 mg/ml. As for the experimental part:
as §1, with “So far, Borrelia burgdorferi has been found in ticks from North America and Eurasia, while Borrelia garinii only in ticks in Eurasia.” left out
(§5) Evaluation of bacteriostatic and bactericidal effect of individual test compounds and their mixtures on test microorganisms. To determine what compound and/or mixture will have the bacteriostatic and/or bactericidal effect a fluorescence method was used according to Sapi et al. Briefly, 5×10^6 bacterial cells/mL of the homogenous bacterial suspension was inoculated into each sterile 1.8 mL test tightly caps screwed tubes containing 1 mL BSK-H medium, supplemented with the test compound/mixture of interest. […] The tubes were then incubated at 33° C. and viability was monitored at regular intervals for up to 72 hours. […]

Experiment [4] concerns active (spirochete) form of Borrelia burgdorferi. The experiment is described as above. Type of experiment: cell-based, Borrelia burgdorferi B31. Conditions: individual compound 0.3 mg/ml. As for the experimental part: as §1, with “So far, Borrelia burgdorferi has been found in ticks from North America and Eurasia, while Borrelia garinii only in ticks in Eurasia.” left out
as §5

Take `CC(C)=CCCC(C)=CC=O` [citral]: in experiment [1], the susceptibility of biofilm entry is “susceptible”; the “efficacy against biofilm compared with combinations (Mix 1 and Mix 2)” value is listed as “lower efficacy against biofilm than their combinations”. In addition, in experiment [2], the susceptibility of biofilm result is given as “susceptible”; the “efficacy against biofilm compared with combinations (Mix 1 and Mix 2)” value is given as “lower efficacy against biofilm than their combinations”.

Regarding `C=CCc1ccc(O)c(OC)c1` [eugenol], the susceptibility of biofilm entry in experiment [1] and in experiment [2] was “susceptible” in each case. The “efficacy against biofilm compared with combinations (Mix 1 and Mix 2)” value in experiment [1] and in experiment [2] was “lower efficacy against biofilm than their combinations” each time. For the same compound, the bactericidal effect is recorded as 50% in experiment [3] (after 6 hours of incubation), 100% in experiment [3] (after 24 hours of incubation), 50% in experiment [4] (after 6 hours of incubation) and 100% in experiment [4] (after 24 hours of incubation).

`C=C(C)[C@@H]1CC=C(C)C(=O)C1` [R-carvone]: the “efficacy against biofilm compared with combinations (Mix 1 and Mix 2)” value in experiment [1] and in experiment [2] was “lower efficacy against biofilm than their combinations” in each case.

In the case of `CCCCC/C=C\C/C=C\CCCCCCCC(=O)O` [linoleic acid], the “efficacy against biofilm compared with combinations (Mix 1 and Mix 2)” value in experiment [1] and in experiment [2] was “lower efficacy against biofilm than their combinations” throughout.
